Results on 21 compounds are retold here after patent US9771351B2, “Wnt signaling inhibitor” (KYOWA HAKKO KIRIN CO., LTD., priority 2013, dated 2017).

The subject of the first assay is T-cell factor (TCF)-luciferase reporter using Wnt pathway as index. Nature of the assay: Inhibitory activity against TCF-luciferase reporter using Wnt pathway as index (DLD-1/TCF-Luc cells). The assay is classed as cell-based, human. The note with it: 1 μmol/L; DLD-1/TCF-Luc cells; luciferase activity after 18 hours. The procedure:
Test Example 1: Inhibitory Activity Against T-Cell Factor (TCF)-Luciferase Reporter Using Wnt Pathway as Index
The inhibitory activity of test compounds against Wnt pathway was evaluated by the following method.
A human colorectal adenocarcinoma cell line DLD-1 (Japanese Collection of Research Bioresources) was cultured in RPMI-1640 medium (Gibco/Life Technologies, Inc.) containing 10% fetal bovine serum (Gibco/Life Technologies, Inc.), 10 mmol/L of a 4-(2-hydroxyethyl)-1-piperazineethanesulfonic acid (HEPES) buffer solution (Gibco/Life Technologies, Inc.), 1 mmol/L of a sodium pyruvate solution (Gibco/Life Technologies, Inc.), 4.5 g/L of a D-(+)-glucose solution (Sigma-Aldrich, Inc.), 100 units/mL penicillin (Gibco/Life Technologies, Inc.) and 100 μg/mL of streptomycin (Gibco/Life Technologies, Inc.) under the conditions of 37° C. and 5% carbon dioxide gas. The DLD-1 cells were seeded in a 10 cm dish, and 20 μg of a luciferase gene plasmid pGL4.27 having a TCF responsive sequence inserted therein was transfected into the cells using 10 μL of Attractene (Qiagen, Inc.) according to the protocol attached to the product. A stably expressing cell line (DLD-1/TCF-Luc) was selected using […] of hygromycin B (Wako Pure Chemical Industries Ltd.). The DLD-1/TCF-Luc cells were detached with trypsin and seeded in a 384-well plate, and a test compound was added at different concentrations. After 18 hours, the luciferase activity was measured using Steady-Glo™ Luciferase Assay System (Promega, Inc.).
The inhibition ratio was obtained according to the following formula 1. The inhibition ratio (%) of the compound of the present invention at 1 μmol/L against the TCF-luciferase reporter using the Wnt pathway as an index is shown in Table 6. [Math. 1] Inhibition ratio (%)=100−{(luciferase activity when test compound was added)−(luciferase activity of blank)}/{(luciferase activity of control)−(luciferase activity of blank)}×100 Formula 1
Turning to `N#Cc1ccccc1CN1C(=O)N(CC2CCN(c3ncnc4cc5c(cc34)OCO5)CC2)Cc2ccccc21` [Compound 3, 2-[(3-{[1-([1,3]Dioxo[4,5-g]quinazolin-8-yl)piperidin-4-yl]methyl}-2-oxo-3,4-dihydroquinazolin-1(2H)-yl)methyl]benzo nitrile], the “Inhibition ratio (%) at 1 μmol/L” value was 77%.
On the same count and under the same terms, the result for `N#Cc1cc(N2C(=O)N(CC3CCN(c4ncnc5cnc(C(N)=O)cc45)CC3)Cc3ncccc32)ccc1F` [Compound 46, 4-(4-{[1-(3-Cyano-4-fluorophenyl)-2-oxo-1,2-dihydropyrido[3,2-d]pyrimidin-3(4H)-yl]methyl}piperidin-1-yl)pyrido[3,4-d]pyrimidine-6-carboxamido] reads 84%; that for `CNC(=O)c1ccc2c(N3CCC(CN4Cc5ccccc5N(c5cccc(C#N)c5)C4=O)CC3)ncnc2c1` [Compound 26, 4-(4-{[1-(3-Cyanophenyl)-2-oxo-1,2-dihydroquinazolin-3(4H)-yl]methyl}piperidin-1-yl)-N-methylquinazoline-7-carboxamido], 77%.
Regarding `N#Cc1cc(N2C(=O)N(CC3CCN(c4ncnc5cc(C(N)=O)ccc45)CC3)Cc3ccccc32)ccn1` [Compound 28, 4-(4-{[1-(2-Cyanopyridin-4-yl)-2-oxo-1,2-dihydroquinazolin-3(4H)-yl]methyl}piperidin-1-yl)quinazoline-7-carboxamido], the “Inhibition ratio (%) at 1 μmol/L” value is on record as 84%.
With “4-(3-{[1-(6-Aminopyrimido[3,4-d]pyrimidin-4-yl)piperidin-4-yl]methyl}-2-oxo-3,4-dihydroquinazolin-1(2H)-yl)picolinonitrile [Compound 33]”, the “Inhibition ratio (%) at 1 μmol/L” value is 82%.

Still in this assay, the particulars now being: Homo sapiens, DLD-1, 18 h, read-out: Inhibition ratio (%) at 1 μmol/L.
With `N#Cc1cc(N2C(=O)N(CC3CCN(c4nccn5c(=O)[nH]nc45)CC3)Cc3ccccc32)ccn1` [Compound 39, 4-(2-Oxo-3-{[1-(3-oxo-2,3-dihydro-[1,2,4]triazolo[4,3-a]pyrazin-8-yl)piperidin-4-yl]methyl}-3,4-dihydroquinazolin-1(2H)-yl)picolinonitrile], the inhibition at 1 µM was determined as 89%.
On to `N#Cc1cc(N2C(=O)N(CC3CCN(c4ncnc5[nH]ccc45)CC3)Cc3ccccc32)ccn1` [Compound 31, 4-(3-{[1-(7H-pyrrolo[2,3-d]pyrimidin-4-yl)piperidin-4-yl]methyl}-2-oxo-3,4-dihydroquinazolin-1(2H)-yl)picolinonitrile], for which the inhibition at 1 µM amounted to 74%.
On the same count and under the same terms, for `N#Cc1cccc(N2C(=O)N(CC3CCN(c4ncnc5c4COCC5)CC3)Cc3ccccc32)c1` [Compound 43, 3-(3-{[1-(7,8-Dihydro-5H-pyrano[4,3-d]pyrimidin-4-yl)piperidin-4-yl]methyl}-2-oxo-3,4-dihydroquinazolin-1(2H)-yl)benzonitrile] the value was 85%; for `N#Cc1cc(N2C(=O)N(CC3CCN(c4nccc5c(=O)[nH]cnc45)CC3)Cc3ccccc32)ccn1` [Compound 42, 4-(2-Oxo-3-{[1-(4-oxo-3,4-dihydropyrido[3,4-d]pyrimidin-8-yl)piperidin-4-yl]methyl}-3,4-dihydroquinazolin-1(2H)-yl)picolinonitrile], 81%; for `CN1CCN(C(=O)c2ccc3c(N4CCC(CN5Cc6ccccc6N(c6ccnc(C#N)c6)C5=O)CC4)ncnc3c2)CC1` [Compound 27, 4-[3-({1-[7-(4-Methylpiperazine-1-carbonyl)quinazolin-4-yl]piperidin-4-yl}methyl)-2-oxo-3,4-dihydroquinazolin-1(2H)-yl]picolinonitrile], 88%.

The assay is the same for the next values; noted with them: Homo sapiens; 1 μmol/L; DLD-1/TCF-Luc cells; luciferase activity after 18 hours; read-out: Inhibition ratio (%) at 1 μmol/L.
As to `N#Cc1cc(N2C(=O)N(CC3CCN(c4ncnc5cnccc45)CC3)Cc3cc(F)cnc32)ccn1` [Compound 23, 4-(6-Fluoro-2-oxo-3-{[1-(pyrido[3,4-d]pyrimidin-4-yl)piperidin-4-yl]methyl}-3,4-dihydropyrido[2,3-d]pyrimidin-1(2H)-yl)picolinonitrile], the inhibition at 1 µM came to 84%.
In the case of `N#Cc1ccc2c(c1)CN(CC1CCN(c3nccc4nc[nH]c(=O)c34)CC1)C(=O)N2c1ccnc(C(N)=O)c1` [Compound 51, 4-(6-Cyano-2-oxo-3-{[1-(4-oxo-3,4-dihydropyrido[4,3-d]pyrimidin-5-yl)piperidin-4-yl]methyl}-3,4-dihydroquinazolin-1(2H)-yl)picolinamide], the inhibition at 1 µM was 90%.
For the compound `COc1cc2ncnc(N3CCC(CN4Cc5ccccc5N(c5cc(C#N)ccn5)C4=O)CC3)c2cc1OC` [Compound 10, 2-(3-{[1-(6,7-Dimethoxyquinazolin-4-yl)piperidin-4-yl]methyl}-2-oxo-3,4-dihydroquinazolin-1(2H)-yl)isonicotinonitrile], the inhibition at 1 µM stood at 79%.
Still for that read-out and setting: the result for `N#Cc1ccccc1CN1C(=O)N(CC2CCN(c3nnnc4ccccc34)CC2)Cc2ccccc21` [Compound 4, 2-[(3-{[1-(Benzo[d][1,2,3]triazin-4-yl)piperidin-4-yl]methyl}-2-oxo-3,4-dihydroquinazolin-1(2H)-yl)methyl]benzonitrile] reads 74%; that for `COc1cc2ncnc(N3CCC(CN4Cc5ccccc5N(c5cccc(C#N)c5)C4=O)CC3)c2cc1OC` [Compound 6, 3-(3-{[1-(6,7-Dimethoxyquinazolin-4-yl)piperidin-4-yl]methyl}-2-oxo-3,4-dihydroquinazolin-1(2H)-yl)benzonitrile], 76%; that for `COc1cc2ncnc(N3CCC(CN4Cc5ccccc5N(c5ccnc(C(N)=O)c5)C4=O)CC3)c2cc1OC` [Compound 14, 4-(3-{[1-(6,7-Dimethoxyquinazolin-4-yl)piperidin-4-yl]methyl}-2-oxo-3,4-dihydroquinazolin-1(2H)-yl)picolinamide], 76%.
On the same count and under the same terms, for `COc1cc2ncnc(N3CCC(NC4Cc5ccccc5N(c5ccnc(C#N)c5)C4=O)CC3)c2cc1OC` (stereo not drawn) [Compound 19, 4-{3-[1-(6,7-Dimethoxyquinazolin-4-yl)piperidin-4-ylamino]-2-oxo-3,4-dihydroquinolin-1(2H)-yl}picolinonitrile] the value was 91%; for `COc1cc2ncnc(N3CC(CN4Cc5ccccc5N(c5ccnc(C#N)c5)C4=O)C3)c2cc1OC` [Compound 17, 4-(3-{[1-(6,7-Dimethoxyquinazolin-4-yl)azetidin-3-yl]methyl}-2-oxo-3,4-dihydroquinazolin-1(2H)-yl)picolinonitrile], 76%.
On the same count and under the same terms, for `N#Cc1cc(N2C(=O)N(CC3CCN(c4ncnc5cc(C(N)=O)ncc45)CC3)Cc3cnccc32)ccc1F` [Compound 52, 4-(4-{[1-(3-Cyano-4-fluorophenyl)-2-oxo-1,2-dihydropyrido[4,3-d]pyrimidin-3(4H)-yl]methyl}piperidin-1-yl)pyrido[4,3-d]pyrimidine-7-carboxamido] the value was 81%; for `COc1cc2ncnc(N3CCC(Cn4c(=O)c5ccccc5n(-c5cccc(C#N)c5)c4=O)CC3)c2cc1OC` [Compound 20, 3-(3-{[1-(6,7-Dimethoxyquinazolin-4-yl)piperidin-4-yl]methyl}-2,4-dioxo-3,4-dihydroquinazolin-1(2H)-yl)benzonitrile], 83%.
As to `N#Cc1cc(N2C(=O)N(CC3CCN(c4nccc5nc[nH]c(=O)c45)CC3)Cc3cc(F)ccc32)ccn1` [Compound 49, 4-(6-Fluoro-2-oxo-3-{[1-(4-oxo-3,4-dihydropyrido[4,3-d]pyrimidin-5-yl)piperidin-4-yl]methyl}-3,4-dihydroquinazolin-1(2H)-yl)picolinonitrile], the inhibition at 1 µM was 82%.
